{"source": "paper PMC4627230", "about": "“Identification of TAX2 peptide as a new unpredicted anti-cancer agent” (Oncotarget, 2015)", "key": {"[1]": {"test_system": "HUVEC", "assay": "HUVEC viability", "assay_type": "cell-based, human"}, "[2]": {"test_system": "TSP-1 binding to CD36", "assay": "Co-immunoprecipitation TSP-1:CD36 in HUVECs", "assay_type": "cell-based, human", "details": "100 μM, 24 h", "method": "Figure 3 Anti-angiogenic properties of TAX2 are mediated by TSP-1 binding to CD36 A. Expression of CD36 in HUVECs was assessed by immunoblotting (left panel) and immunofluorescence staining (right panel, red). Nuclei were counterstained with DAPI (blue). B. HUVECs were incubated with 100 μM cyclic TAX2 or in control conditions for 24 h. Then, CD36-containing complexes were co-immunoprecipitated from whole cell extracts (non-specific IgGs were used as a negative control for immunoprecipitation). Immunocomplexes were submitted to SDS-PAGE and immunoblotted (IB) by using specific antibodies for TSP-1 and CD36. The presence of TSP-1 in immunocomplexes was quantified by densitometric analysis relative to immunoprecipitated CD36. C. VEGFR2 phosphorylation induced by VEGF in the presence of TAX2. After overnight serum starvation, HUVECs were pre-treated with 100 μM TAX2 or control for 12 h, then incubated with 30 ng/mL VEGF for 5 min. […] Data are expressed as the mean ± SE (n = 3; *p < 0.05, ANOVA). […] Quantification of total tube-like network length was realized using ImageJ software E. Branching points F. and nodal structures G. were numbered using the S.CORE web-based system. Data are expressed as the mean ± SE (n = 3; *p < 0.05, ANOVA). […]"}, "[3]": {"test_system": "BALB/C nu/nu mice", "assay": "Tolerability in xenograft-bearing mice", "assay_type": "in vivo, mouse", "method": "For the subcutaneous melanoma tumor model, suspensions of B16F1 cells (2.5 × 10^5 cells in 100 μL RPMI-1640 medium) were subcutaneously injected into the left flank of different randomized series of syngeneic C57BL/6 mice (n = 8–10 per group), as previously described. Intraperitoneal administrations of peptide (10 mg/kg mouse weight) or controls (physiological serum 0.9% (w/v) NaCl or a scrambled peptide) were performed at days 3, 5 and 7. In human pancreatic carcinoma xenograft experiments, 3 × 10^6 MIA PaCa-2 cells/mouse were implanted subcutaneously into the left flank of BALB/C athymic nude mice, then TAX2 intraperitoneal treatments (10 mg/kg mouse weight) were performed 3 times a week during 4 weeks starting at day 10 after tumor cells inoculation. Tumor volume was determined according to v = 0.5 A × B^2, where A denotes the largest dimension of the tumor and B represents the smallest dimension. At days indicated, mice were sacrificed and tumors were surgically extracted and fixed in 4% paraformaldehyde for further morphologic studies and for magnetic resonance imaging, or frozen for immunohistochemistry. Mice were also weighed every 2–3 days and daily checked for any modification in their behavior. […]"}}, "data": [{"sequence": "CEVSQLLKGDAC (disulfide) [TAX2, CD47-derived cyclic disulfide dodecapeptide …]", "values": [{"measurement": "cytotoxic effect on HUVECs", "setting": "[1]", "value": "cannot be attributed to any cytotoxic effect"}, {"measurement": "HUVEC viability", "setting": "[1]; percent compared to control treatment, t test", "value": "not significant"}, {"measurement": "increase of TSP-1 co-immunoprecipitated with CD36", "setting": "[2]", "value": 3, "unit": "fold"}, {"measurement": "clinical sign or weight loss", "setting": "[3]; 10 mg/kg i.p. 3 times a week for 4 weeks", "value": "mice did not exhibit any other clinical sign or weight loss"}, {"measurement": "thrombosis, hemorrhage or embolism in xenograft-bearing mice", "setting": "[3]; healthy organs, human pancreatic carcinoma model", "value": "no signs of thrombosis, hemorrhage or embolism were observed in healthy organs"}]}]}
